Reference: publication PMC6222927, “Aminobenzosuberone Scaffold as a Modular Chemical Tool for the Inhibition of Therapeutically Relevant M1 Aminopeptidases” (Molecules : A Journal of Synthetic Chemistry and Natural …, 2018)
Where two headings read alike, the source gives them in different places. Marks after values point to notes of the source that are not given here.

Columns and labels:
pAPN from porcine kidney = settings: Dixon plots; cited from earlier work
[1] = molecular target: aminopeptidase from A. proteolytica (AAP); design: method as in PMID 21843945; settings: ref 58; cited from earlier work
[2] = Octanol/water partition coefficient (logD7.4) by reversed-phase HPLC; settings: pH 7.4
Description: The flow was 0.9 mL/min. The aminobenzosuberone derivatives were dissolved at 0.4 µM in methanol. The standards were also dissolved in methanol. Column void volume was estimated from the retention time of uracil, which was included as a non-retained internal reference with each injection.

P. falciparum rPfAM17 = molecular target: T1, P. falciparum rPfAM17 (Plasmodium falciparum, UniProt Q8IL11); assay: rPfAM17 inhibition, Leu-pNA substrate, Dixon plots; assay type: biochemical
T1 construct: made in house; host or cells: Escherichia coli Rosetta 2 (DE3)
T1 sequence (Q8IL11 1-605): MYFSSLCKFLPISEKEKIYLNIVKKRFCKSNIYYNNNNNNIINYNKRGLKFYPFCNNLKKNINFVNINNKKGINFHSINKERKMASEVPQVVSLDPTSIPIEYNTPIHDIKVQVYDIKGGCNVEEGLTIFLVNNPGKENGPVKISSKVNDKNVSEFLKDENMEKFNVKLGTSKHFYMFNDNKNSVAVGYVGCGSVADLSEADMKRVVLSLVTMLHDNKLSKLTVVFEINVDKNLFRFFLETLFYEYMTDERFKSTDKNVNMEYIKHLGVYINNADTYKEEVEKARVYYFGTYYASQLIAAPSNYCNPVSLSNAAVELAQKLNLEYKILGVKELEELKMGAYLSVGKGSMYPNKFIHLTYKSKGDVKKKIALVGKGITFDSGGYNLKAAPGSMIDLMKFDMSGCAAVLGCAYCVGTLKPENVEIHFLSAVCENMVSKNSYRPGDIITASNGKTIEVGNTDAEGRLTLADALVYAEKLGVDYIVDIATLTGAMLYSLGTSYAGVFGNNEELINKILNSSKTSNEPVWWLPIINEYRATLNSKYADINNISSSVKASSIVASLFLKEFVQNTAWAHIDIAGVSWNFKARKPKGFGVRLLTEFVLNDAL
Description: Tests were carried out on HP/Agilent UV-Visible diode array spectrophotometer 8453 (HP/Agilent, Santa Clara, CA, USA), at 30 °C in Tris HCl 50 mM pH 7.4 for rPfAM1 and pH 8 for rPfAM17, with a final DMSO concentration of 1%. […]. […] Initial velocities were measured with increasing concentrations of inhibitors and Ki values were determined by Dixon plots in triplicate.

[3] = molecular target: T2, human endoplasmic reticulum aminopeptidase 1 (rHsERAP1) (Homo sapiens, UniProt Q9NZ08); assay: rHsERAP1 inhibition, L-AMC fluorigenic substrate; assay type: biochemical; settings: 50 µM L-AMC
T2 construct: made in house; host or cells: Hi5 insect cells (baculovirus produced in sf9)
Description: (§1) The enzymatic activity of HsERAP1, HsERAP2 and HsIRAP was determined by following the time-dependent increase in fluorescence at 460 nm (excitation: 380 nm) of the fluorigenic substrates L-Leucine-7-amido-4-methyl coumarin (L-AMC; Sigma, Darmstatd, Germany) for HsERAP1 and HsIRAP and L-arginyl-7-amido-4-methyl coumarin (R-AMC; Sigma) for HsERAP2. […] The reaction was followed for 10 min at room temperature and the remaining enzymatic activity was calculated by measuring the slope of the time course.

[4] = molecular target: T3, human Leucyl-cystinyl aminopeptidase (rHsIRAP) (Homo sapiens, UniProt Q9UIQ6); assay: rHsIRAP inhibition, L-AMC fluorigenic substrate; assay type: biochemical
T3 construct: made in house; host or cells: Hi5 insect cells (baculovirus produced in sf9)
Description: The enzymatic activity of HsERAP1, HsERAP2 and HsIRAP was determined by following the time-dependent increase in fluorescence at 460 nm (excitation: 380 nm) of the fluorigenic substrates L-Leucine-7-amido-4-methyl coumarin (L-AMC; Sigma, Darmstatd, Germany) for HsERAP1 and HsIRAP and L-arginyl-7-amido-4-methyl coumarin (R-AMC; Sigma) for HsERAP2. […]. The reaction was followed for 10 min at room temperature and the remaining enzymatic activity was calculated by measuring the slope of the time course. […]

P. falciparum rPfAM1 = molecular target: T4, P. falciparum rPfAM1 (Plasmodium falciparum, UniProt O96935); assay: biochemical; assay type: biochemical
T4 construct: made in house; host or cells: Escherichia coli Rosetta 2 (DE3)
T4 sequence (O96935 1-1085): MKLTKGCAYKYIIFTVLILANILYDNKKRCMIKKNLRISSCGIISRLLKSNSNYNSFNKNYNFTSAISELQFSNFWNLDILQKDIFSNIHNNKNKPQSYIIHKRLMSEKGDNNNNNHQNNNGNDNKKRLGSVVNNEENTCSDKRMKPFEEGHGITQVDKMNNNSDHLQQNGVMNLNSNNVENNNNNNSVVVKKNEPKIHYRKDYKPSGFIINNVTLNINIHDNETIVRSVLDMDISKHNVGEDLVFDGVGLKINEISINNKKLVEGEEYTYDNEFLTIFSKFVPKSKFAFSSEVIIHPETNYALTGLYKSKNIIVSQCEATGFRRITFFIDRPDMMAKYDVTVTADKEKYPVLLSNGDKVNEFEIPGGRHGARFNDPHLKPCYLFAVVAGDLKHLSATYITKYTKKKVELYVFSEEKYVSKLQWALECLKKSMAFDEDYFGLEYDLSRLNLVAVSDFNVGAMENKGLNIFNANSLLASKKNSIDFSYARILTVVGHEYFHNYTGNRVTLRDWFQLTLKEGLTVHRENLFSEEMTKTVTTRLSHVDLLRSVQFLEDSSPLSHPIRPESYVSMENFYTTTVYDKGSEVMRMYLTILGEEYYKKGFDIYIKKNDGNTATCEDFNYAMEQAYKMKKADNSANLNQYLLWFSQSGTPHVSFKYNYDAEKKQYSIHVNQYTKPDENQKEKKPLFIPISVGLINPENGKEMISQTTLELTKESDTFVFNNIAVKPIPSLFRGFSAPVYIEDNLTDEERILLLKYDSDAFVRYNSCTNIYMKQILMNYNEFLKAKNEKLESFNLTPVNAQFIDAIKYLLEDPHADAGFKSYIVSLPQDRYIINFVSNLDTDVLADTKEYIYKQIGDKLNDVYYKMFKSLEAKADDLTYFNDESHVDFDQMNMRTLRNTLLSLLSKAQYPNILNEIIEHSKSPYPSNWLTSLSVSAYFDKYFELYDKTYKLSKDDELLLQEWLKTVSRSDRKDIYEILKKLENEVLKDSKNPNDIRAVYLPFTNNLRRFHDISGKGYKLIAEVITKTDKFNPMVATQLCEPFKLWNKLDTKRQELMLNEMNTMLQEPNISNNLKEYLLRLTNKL
Description: Initial velocities were measured with increasing concentrations of inhibitors and Ki values were determined by Dixon plots in triplicate.

[5] = molecular target: human leukotriene A4 hydrolase (rHsLTA4H); design: method as in PMID 21843945; settings: cited from earlier work; for Ki: ref 58
[6] = molecular target: T5, human endoplasmic reticulum aminopeptidase 2 (rHsERAP2) (Homo sapiens, UniProt Q6P179); assay: rHsERAP2 inhibition, R-AMC fluorigenic substrate; assay type: biochemical; settings: 50 µM R-AMC
T5 construct: made in house; host or cells: Hi5 insect cells (baculovirus produced in sf9)
Description: as §1

[7] = molecular target: human aminopeptidase A (HsAPA); settings: ref 50; cited from earlier work
[8] = molecular target: human puromycine sensitive aminopeptidase (rHsPSA) (Homo sapiens, UniProt P55786); assay: rHsPSA inhibition, Leu-pNA substrate, Dixon method; assay type: biochemical; settings: triplicate, SD
Description: Enzyme activity assays were carried out in 10 mM Tris-HCl buffer at pH 7.5 with 150 mM NaCl, enzyme, 100 µM substrate (Leu-pNA) in a 100 μL reaction at 37 °C. The absorbance was read at 405 nm. Concentrations ranging from 1 nM to 100 μM of inhibitors (dissolved in DMSO) were incubated with each of the enzymes ([…]) for 30 min at 37 °C in a 96 well plate. After addition of the substrate, immediate increase in absorption was measured. All inhibition assays were performed in triplicates and initial velocities were measured. Percentage inhibition and log values of inhibitor concentrations were plotted using SigmaPlot to determine IC50 values. Ki values were determined by the Dixon method. The assay consists of reaction buffer, enzyme and varied concentrations of Leu-pNA (25, 50, 100, 200 and 400 µM). […]. All the reactions were performed in triplicates, SD values were reported.

E. coli rEcPepN = E. coli rEcPepN (Escherichia coli, UniProt P04825); assay: rEcPepN inhibition, Leu-pNA substrate, Dixon method; assay type: biochemical
Description: Enzyme activity assays were carried out in 10 mM Tris-HCl buffer at pH 7.5 with 150 mM NaCl, enzyme, 100 µM substrate (Leu-pNA) in a 100 μL reaction at 37 °C. The absorbance was read at 405 nm. Concentrations ranging from 1 nM to 100 μM of inhibitors (dissolved in DMSO) were incubated with each of the enzymes ([…]) for 30 min at 37 °C in a 96 well plate. After addition of the substrate, immediate increase in absorption was measured. All inhibition assays were performed in triplicates and initial velocities were measured. Percentage inhibition and log values of inhibitor concentrations were plotted using SigmaPlot to determine IC50 values. Ki values were determined by the Dixon method. The assay consists of reaction buffer, enzyme and varied concentrations of Leu-pNA (25, 50, 100, 200 and 400 µM). […] Data were plotted as 1/rate versus inhibitor concentration for each substrate concentration and a linear fit was calculated by non-linear regression using SigmaPlot12.5. All the reactions were performed in triplicates, SD values were reported.

[9] = molecular target: human puromycine sensitive aminopeptidase (HsPSA); settings: ref 49; cited from earlier work
[10] = molecular target: mammalian aminopeptidase N (mAPN); settings: cited from earlier work
[11] = molecular target: P. falciparum (PfAM1) M1 aminopeptidase; settings: cited from earlier work
[12] = test system: E. coli (EcPepN) M1 aminopeptidase; settings: ref 49; cited from earlier work
[13] = 50 µM L-AMC, read-out: IC50 rHsIRAP
[14] = Dixon plots, triplicate, read-out: Ki rPfAM1

T3 sequence (Q9UIQ6 155-1025 limits assumed): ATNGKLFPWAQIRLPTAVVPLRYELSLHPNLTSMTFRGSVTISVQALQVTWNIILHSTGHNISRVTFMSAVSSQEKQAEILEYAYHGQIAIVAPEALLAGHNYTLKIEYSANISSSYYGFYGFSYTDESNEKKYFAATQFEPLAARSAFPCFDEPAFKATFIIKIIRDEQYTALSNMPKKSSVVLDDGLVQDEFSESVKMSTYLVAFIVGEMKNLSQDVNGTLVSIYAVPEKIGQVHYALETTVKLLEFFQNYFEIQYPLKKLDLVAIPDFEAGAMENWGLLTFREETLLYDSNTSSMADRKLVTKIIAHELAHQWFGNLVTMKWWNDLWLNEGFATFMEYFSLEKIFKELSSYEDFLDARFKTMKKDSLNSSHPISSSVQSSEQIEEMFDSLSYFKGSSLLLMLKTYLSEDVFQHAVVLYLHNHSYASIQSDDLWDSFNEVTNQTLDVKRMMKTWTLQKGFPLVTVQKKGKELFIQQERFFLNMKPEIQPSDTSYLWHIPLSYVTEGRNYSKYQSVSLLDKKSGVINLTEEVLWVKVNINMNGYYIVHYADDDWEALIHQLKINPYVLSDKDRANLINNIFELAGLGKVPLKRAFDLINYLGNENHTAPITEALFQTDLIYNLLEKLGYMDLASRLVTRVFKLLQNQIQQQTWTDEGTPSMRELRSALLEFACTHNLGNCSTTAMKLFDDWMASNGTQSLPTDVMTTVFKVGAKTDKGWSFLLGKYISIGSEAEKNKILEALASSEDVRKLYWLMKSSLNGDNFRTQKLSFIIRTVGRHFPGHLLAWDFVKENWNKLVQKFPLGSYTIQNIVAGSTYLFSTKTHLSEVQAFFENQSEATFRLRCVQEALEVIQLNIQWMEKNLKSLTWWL
T2 sequence (Q9NZ08 whole entry): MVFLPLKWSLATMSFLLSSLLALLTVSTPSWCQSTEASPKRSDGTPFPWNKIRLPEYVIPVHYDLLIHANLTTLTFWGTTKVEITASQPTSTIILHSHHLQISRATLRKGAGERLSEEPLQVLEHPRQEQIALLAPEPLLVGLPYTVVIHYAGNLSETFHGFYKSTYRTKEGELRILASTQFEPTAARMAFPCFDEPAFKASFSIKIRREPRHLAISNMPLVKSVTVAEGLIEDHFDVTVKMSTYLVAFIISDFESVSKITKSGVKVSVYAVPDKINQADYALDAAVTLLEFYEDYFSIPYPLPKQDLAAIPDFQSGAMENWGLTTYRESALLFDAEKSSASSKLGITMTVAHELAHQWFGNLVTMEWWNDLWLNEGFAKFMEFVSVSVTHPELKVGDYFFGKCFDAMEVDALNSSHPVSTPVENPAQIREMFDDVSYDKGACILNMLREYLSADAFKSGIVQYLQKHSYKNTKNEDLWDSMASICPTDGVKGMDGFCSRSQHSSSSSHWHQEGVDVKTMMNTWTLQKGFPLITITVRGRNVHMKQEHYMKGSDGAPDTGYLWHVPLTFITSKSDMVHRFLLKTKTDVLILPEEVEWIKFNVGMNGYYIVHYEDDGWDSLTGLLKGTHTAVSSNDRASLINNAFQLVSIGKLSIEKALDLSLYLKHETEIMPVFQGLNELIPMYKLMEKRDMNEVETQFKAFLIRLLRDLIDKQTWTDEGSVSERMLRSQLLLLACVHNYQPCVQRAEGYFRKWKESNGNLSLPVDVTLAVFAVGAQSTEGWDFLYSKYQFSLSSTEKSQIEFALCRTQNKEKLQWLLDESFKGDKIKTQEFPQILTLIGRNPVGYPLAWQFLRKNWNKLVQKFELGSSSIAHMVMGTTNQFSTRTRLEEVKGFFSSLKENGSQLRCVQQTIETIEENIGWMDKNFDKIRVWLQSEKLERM
T5 sequence (Q6P179 whole entry): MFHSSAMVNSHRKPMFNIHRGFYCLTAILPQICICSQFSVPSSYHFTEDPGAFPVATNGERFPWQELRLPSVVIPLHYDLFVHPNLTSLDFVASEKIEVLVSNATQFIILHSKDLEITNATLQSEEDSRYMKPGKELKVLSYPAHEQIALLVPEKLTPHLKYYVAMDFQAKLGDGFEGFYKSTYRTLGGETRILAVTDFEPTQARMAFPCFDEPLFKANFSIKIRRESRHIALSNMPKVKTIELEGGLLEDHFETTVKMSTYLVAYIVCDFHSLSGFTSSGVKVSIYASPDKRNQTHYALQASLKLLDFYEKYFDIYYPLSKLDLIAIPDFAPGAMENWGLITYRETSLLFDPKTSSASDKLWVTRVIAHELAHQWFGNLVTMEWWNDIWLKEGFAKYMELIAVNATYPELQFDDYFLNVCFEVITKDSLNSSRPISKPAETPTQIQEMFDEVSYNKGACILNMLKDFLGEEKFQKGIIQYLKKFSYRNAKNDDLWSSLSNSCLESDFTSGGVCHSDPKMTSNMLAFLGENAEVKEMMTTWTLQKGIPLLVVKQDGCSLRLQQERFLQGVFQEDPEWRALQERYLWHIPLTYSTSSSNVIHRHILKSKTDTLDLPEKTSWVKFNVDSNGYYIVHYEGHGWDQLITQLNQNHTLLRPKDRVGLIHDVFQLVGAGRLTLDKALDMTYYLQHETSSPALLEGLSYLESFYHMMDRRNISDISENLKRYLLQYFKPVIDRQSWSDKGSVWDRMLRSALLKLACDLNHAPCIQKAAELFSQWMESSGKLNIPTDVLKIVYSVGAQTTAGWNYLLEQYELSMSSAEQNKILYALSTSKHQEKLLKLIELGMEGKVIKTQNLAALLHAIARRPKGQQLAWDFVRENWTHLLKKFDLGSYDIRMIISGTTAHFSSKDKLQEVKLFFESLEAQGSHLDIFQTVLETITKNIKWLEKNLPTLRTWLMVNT
Sequence of E. coli rEcPepN (P04825 whole entry): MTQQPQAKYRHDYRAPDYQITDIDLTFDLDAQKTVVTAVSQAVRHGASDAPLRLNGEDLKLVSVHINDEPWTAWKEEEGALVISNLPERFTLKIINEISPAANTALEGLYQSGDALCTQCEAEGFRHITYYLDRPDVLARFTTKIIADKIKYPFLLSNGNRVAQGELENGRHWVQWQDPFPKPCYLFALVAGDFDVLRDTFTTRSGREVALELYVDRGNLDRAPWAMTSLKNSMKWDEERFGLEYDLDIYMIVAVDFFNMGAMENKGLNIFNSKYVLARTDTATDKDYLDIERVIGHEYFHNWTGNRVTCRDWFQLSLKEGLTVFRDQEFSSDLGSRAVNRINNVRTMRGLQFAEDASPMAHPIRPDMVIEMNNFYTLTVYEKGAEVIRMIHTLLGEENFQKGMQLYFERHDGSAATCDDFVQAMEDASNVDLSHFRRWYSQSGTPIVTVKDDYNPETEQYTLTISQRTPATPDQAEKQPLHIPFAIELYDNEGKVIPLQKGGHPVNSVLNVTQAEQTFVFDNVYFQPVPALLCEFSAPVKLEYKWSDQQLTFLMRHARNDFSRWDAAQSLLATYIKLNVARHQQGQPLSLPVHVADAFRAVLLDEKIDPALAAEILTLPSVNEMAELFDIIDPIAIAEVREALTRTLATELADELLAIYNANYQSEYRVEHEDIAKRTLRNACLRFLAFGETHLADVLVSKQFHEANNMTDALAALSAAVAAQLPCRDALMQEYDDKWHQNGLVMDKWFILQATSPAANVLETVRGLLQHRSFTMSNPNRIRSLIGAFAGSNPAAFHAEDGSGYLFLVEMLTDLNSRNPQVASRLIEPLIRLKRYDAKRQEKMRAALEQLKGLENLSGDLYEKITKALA
Sequence of human puromycine sensitive aminopeptidase (rHsPSA) (P55786 whole entry): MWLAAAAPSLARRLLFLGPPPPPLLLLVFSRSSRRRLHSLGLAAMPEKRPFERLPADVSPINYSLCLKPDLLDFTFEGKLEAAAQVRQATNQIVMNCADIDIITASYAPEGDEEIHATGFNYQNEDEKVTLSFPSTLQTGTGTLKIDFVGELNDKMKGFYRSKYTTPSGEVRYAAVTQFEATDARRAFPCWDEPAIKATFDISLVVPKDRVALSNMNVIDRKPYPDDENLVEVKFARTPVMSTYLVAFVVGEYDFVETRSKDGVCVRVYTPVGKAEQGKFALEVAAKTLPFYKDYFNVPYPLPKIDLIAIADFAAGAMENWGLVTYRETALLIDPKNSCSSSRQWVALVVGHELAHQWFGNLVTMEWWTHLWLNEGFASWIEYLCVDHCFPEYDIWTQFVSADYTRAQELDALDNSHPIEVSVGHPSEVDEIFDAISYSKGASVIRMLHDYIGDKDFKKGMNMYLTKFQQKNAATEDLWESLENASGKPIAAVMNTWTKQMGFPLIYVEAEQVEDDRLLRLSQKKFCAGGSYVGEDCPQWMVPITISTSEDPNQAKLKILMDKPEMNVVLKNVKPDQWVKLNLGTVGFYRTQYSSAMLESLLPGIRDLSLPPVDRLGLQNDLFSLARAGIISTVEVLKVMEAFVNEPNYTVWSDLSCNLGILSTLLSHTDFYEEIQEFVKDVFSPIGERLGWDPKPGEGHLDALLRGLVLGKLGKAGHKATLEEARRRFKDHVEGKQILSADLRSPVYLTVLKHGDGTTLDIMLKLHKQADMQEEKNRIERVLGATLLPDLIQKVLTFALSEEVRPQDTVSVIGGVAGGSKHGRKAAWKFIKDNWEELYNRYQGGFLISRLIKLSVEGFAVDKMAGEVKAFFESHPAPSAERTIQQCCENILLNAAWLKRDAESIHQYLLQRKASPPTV

NC1CCc2c(cccc2-c2ccccc2)CC1=O (centres unmarked) [21f]
Ki (pAPN from porcine kidney): 0.25 µM | Ki [1]: > 100 µM | chromatographic logD [2]: 2.22 | Ki (P. falciparum rPfAM17): > 100 µM | IC50 [3]: 137 ± 5 µM | IC50 [4, 13]: 2.2 ± 0.13 µM | Ki (P. falciparum rPfAM1): 2 ± 0.07 µM | Ki [5]: > 100 µM | IC50 [6]: > 200 µM

NC1CCc2c(-c3ccccc3)ccc(Br)c2CC1=O (centres unmarked) [21j]
Ki (pAPN from porcine kidney): 0.07 µM | Ki [1]: > 100 µM | chromatographic logD [2]: 3.06 | Ki (P. falciparum rPfAM1; [14]): 4 ± 0.7 µM | % of inhibition of rHsLTA4H ([5]; determined at 100 µM): 54% ^#

N[C@H](CS)CCC(=O)O [compound 6]
Ki [7]: 0.14 µM

NC1CCc2c(Br)ccc(Br)c2CC1=O (centres unmarked) [21h]
chromatographic logD [2]: 2.48 | IC50 [4]: 0.034 ± 0.001 µM | Ki ([4]; read-out: Ki HsIRAP): 0.034 µM | Ki (P. falciparum rPfAM1; [14]): 0.005 ± 0.001 µM

NC1CCc2cccc(Br)c2CC1=O (centres unmarked) [21b]
Ki (pAPN from porcine kidney): 0.04 µM | Ki [1]: > 100 µM | chromatographic logD [2]: 1.28 | Ki (P. falciparum rPfAM17): > 100 µM | IC50 [3]: 120 ± 11 µM | Ki [8]: 1.63 ± 0.08 µM | IC50 [4, 13]: 1 ± 0.08 µM | Ki (E. coli rEcPepN): 1.07 ± 0.11 µM | Ki [5]: > 100 µM | IC50 [6]: 49 ± 3.8 µM

CCOC(=O)C1=C(Nc2ccccc2)CC(c2ccccn2)N(c2ccccc2)C1c1cccnc1 (centres unmarked) [compound 4]
IC50 [9]: 1.79 µM | Ki ([10]; ref 49): > 100 µM | Ki ([11]; ref 49): > 100 µM | Ki [12]: > 100 µM

O=C(CCc1ccc(F)cc1)/C(=C/c1ccccc1)C(=O)NO [compound 10]
IC50 ([10]; ref 35, 53): 1.37 µM | IC50 ([11]; ref 35, 53): 0.006 µM
